Data on one compound can be found in patent publication US20030065030A1, “Autonomic controlling agents and health drinks and foods” (priority 2001, published 2003).

The experiment relates to 2DG hyperglycemic rats. The experiment is described as follows: anti-hyperglycemia in the 2DG hyperglycemic rats. Type of experiment: in vivo, rat. Conditions: 10 ng intracranially administered. The text has this: Since blood glucose levels are expected to be reduced when the activity of the autonomic nervous system is controlled by carnosine at a low dose, the effect of carnosine on anti-hyperglycemia in the 2DG hyperglycemic rats was investigated according to the method of Chun et al. (Brain Research 809:165-174, 1998). Wistar male rats (initial weight, about 250 g) were used that had been acclimated for at least 10 days to an environment in a room illuminated with an incandescent light of 80 lux on the average for 12 hours at room temperature (24 +/− 1° C.) with free access to the feed.
Three days before the experiment, rats under anesthesia with pentobarbital (35 mg/kg body weight, intraperitoneal administration) received the insertion of a cardiac catheter comprising a silastic tubing (Dow Corning, Midland, Mich.) and a polyethylene tubing (Clay Adams, Parsippany, N.J.) into the right atrium and a polyethylene tubing into the right lateral cerebral ventricle (LCV). On the day of the experiment, carnosine dissolved in physiological saline was administered to the rats intracranially (0.01 ml) or intraperitoneally (0.1 ml) with the simultaneous administration into the rat LCV of 80 μmol 2-deoxy-D-glucose (2DG, 0.01 ml). The control rats received physiological saline instead of carnosine and an artificial cerebrospinal fluid in stead of 2DG, each at the same amount.
Sixty minutes after the administration of 2DG into the LCV, 300 μl of blood was taken via the cardiac catheter and the plasma level of glucose was determined. The glucose concentrations in the plasma were measured using the Fuji-Dri-chem system (Fuji Film Tokyo) according to the glucose oxidase method. Changes in plasma concentrations of glucose were expressed as a ratio (%) relative to the control value at 90 minutes after 2DG administration set at 100. Four or five rats were used in the experiments. Data were tested with ANOVA (p<0.05) and were expressed as mean +/− standard error.

As to `Cn1cncc1C[C@H](NC(=O)CCN)C(=O)O` [anserine, reference compound], the effect on hyperglycemia result is “did not suppress hyperglycemia”.
